Here are results for 2 compounds from patent US12459891B2, “1-[1-(4-benzyloxy-3,5-difluoro-benzoyl)-4-fluoro-pyrrolidine-2-carbonyl]-pyrrolidine-2-carbonitrile” (ACCURE THERAPEUTICS, S.L., priority 2020, dated 2025).

For data set [1], the target named is T1, 5-HT1A receptor (Homo sapiens, UniProt P08908).
T1 construct: purchased Cerep/Eurofins SafetyScreen44 panel
T1 sequence (P08908 1-422): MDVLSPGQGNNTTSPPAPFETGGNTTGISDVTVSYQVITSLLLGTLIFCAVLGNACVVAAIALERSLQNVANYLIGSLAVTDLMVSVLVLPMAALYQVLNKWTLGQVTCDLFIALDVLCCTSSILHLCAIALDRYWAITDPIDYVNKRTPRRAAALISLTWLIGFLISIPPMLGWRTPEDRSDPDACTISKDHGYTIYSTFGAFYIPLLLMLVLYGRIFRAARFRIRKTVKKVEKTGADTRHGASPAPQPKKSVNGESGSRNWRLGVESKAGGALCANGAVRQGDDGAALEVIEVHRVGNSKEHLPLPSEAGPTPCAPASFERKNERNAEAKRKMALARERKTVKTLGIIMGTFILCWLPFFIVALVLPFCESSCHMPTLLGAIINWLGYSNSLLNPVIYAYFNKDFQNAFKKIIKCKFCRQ
The experiment in a line: Selectivity profile, radioligand binding (SafetyScreen44 panel). To be noted: 100 μM compound (1% DMSO); read-out: % inhibition of control specific binding. Here is the method: The experiment was performed using the SafetyScreen44® panel from Cerep/Eurofins. Compounds were tested at a concentration 100 μM (in 1% DSMO).
Compound binding was calculated as a percentage inhibition of the binding of a radioactively labeled ligand specific for each target.
The results are expressed as a percent inhibition of control specific binding
[formula] obtained in the presence of tested compounds.
Results showing an inhibition higher than 50% are considered to represent significant effects of the test compounds.

Data set [2] concerns Caco-2 cells. As to the kind of experiment: Caco-2 permeability assay (apical to basal). To be noted: 50 μM, 2 hours at 37° C. Type of data set: in vitro ADME, human. The text has this: Caco-2 cells are widely used as an in vitro model for prediciting human drug absorption. The Caco-2 cell line is derived from human colorectal carcinoma, and when cultured, the cells spontaneously differentiate into monolayers of polarized enterocytes.
Experiments were done using the CacoReay permeability kit (ReadyCell, Barcelona, Spain).
On the same week of the reception of the kit, the shipping medium of the cells was liquefied according to user's manual provided with the kit, after which the shipping medium was replaced with fresh Dulbecco's Modified Eagle's Medium (DMEM, low-glucose).
Three days later, equivalent to day 20 of cell culture, the quality of the barrier system and the presence of tight junctions between the cells was checked by measuring the trans endothelial electrical resistance (TEER) of the cell barrier. […]
For the transport experiments (apical to basal), the cells were incubated with the solutions containing the compounds for 2 hours at 37° C. Afterwards, the content of the compartments was recovered and analyzed by HPLC (Column C18 Sunfire 100 mm×4.6 mm, […], 100 Å, Waters; Flow rate 1 mL/min; Gradient 0-100% B in 8 min A=0.045% Trifluoracetic acid in H2O and B 0.036% Trifluoracetic acid in acetonitrile, detection at 220 nm). […]
In the Caco-2 permeability assay, the percentage of transport (T %) for the compounds was calculated according to the following equation: […]

A short description of data set [3]: In vivo brain exposure (plasma and brain AUC). To be noted: male, mouse, mice, 5 mg/kg, read-out: % BBB (brain exposure, plasma and brain AUC ratio). Here is the method:
For each compound, twenty-four adult male mice, aged 7-8 weeks on the day of experiment, were used for the study and were allocated randomly between the groups. The experiments were performed on 3 groups of animals as described in the table below:
After compound administration, terminal blood was performed at several time points after intraperitoneal (Comp. ex. 3) or oral administration (Ex. 1).
After transcardiac perfusion with phosphate buffered saline, brains were also collected. All the samples were stored at −80° C. until bioanalysis.
The plasma samples were thawed at room temperature (RT), and the samples were protein precipitated with a 2-fold volume of acetonitrile, containing 20 ng/mL phenacetin as an internal standard. The samples were mixed throughout, followed by centrifugation for 20 min at 2,200×g. The supernatants were diluted 1:1 with 150 mM phosphate buffered saline (pH 7.4) and pipetted onto UPLC 96-well plates to wait for the analysis. […]
Levels of the compounds of Comp. Ex. 3 and example 1 were quantified from mouse plasma and brain. Samples were analyzed using a fit-on-purpose bioanalytical method using a UPLC/QE-Orbitrap-Mass Spectroscopy.
The concentration (ng/mL) of the compounds along time was plotted and the area under the curve (AUC) in plasma and brain tissue was calculated using Graphpad Prism™ 5.0. The plasma to brain ratio was calculated as follows: […]

Where two headings read alike, the source gives them in different places.

As a reminder, the inhibition is the change of the read-out against control, counted positive when it falls.

For `COc1cc(C(=O)N2CC(F)(F)C[C@H]2C(=O)N2CCC[C@H]2C#N)cc(OC)c1OCc1ccccc1` [Comp Ex. 3, (S)-1-((2S)-1-(4-(benzyloxy)-3,5-dimethoxybenzoyl)-4,4-difluoropyrrolidine-2-carbonyl)pyrrolidine-2-carbonitrile], in data set [1], the inhibition at 100 µM is 64.6%. Besides, the “% T (percentage of transport), Caco-2” value in data set [2] worked out at 5.7%. In data set [3] (IP), the Kp worked out at 0.21.
With `N#C[C@@H]1CCCN1C(=O)[C@@H]1C[C@@H](F)CN1C(=O)c1cc(F)c(OCc2ccccc2)c(F)c1` [Example 1, (S)-1-((2S,4R)-1-(4-(benzyloxy)-3,5-difluorobenzoyl)-4-fluoropyrrolidine-2-carbonyl)pyrrolidine-2-carbonitrile], the inhibition at 100 µM in data set [1] was -6.3%. Also, the “% T (percentage of transport), Caco-2” value in data set [2] stood at 45%. Also, the Kp in data set [3] (PO) came out at 0.253.
